In patent US20240402608A1, “METHOD FOR NON-INVASIVE PRODUCTION OF DEFINED STRUCTURES INSIDE COMPARTMENTS AND COMPARTMENT” (MAX-PLANCK-GESELLSCHAFT ZUR FÖRDERUNG DER WISSENSCHAFTEN …, priority 2021, published 2024):
{Atto647N} = Atto 647N fluorescent dye

Tests used:
[1] = Influx of fluorophore or ssDNA into GUVs with and without printed pore, confocal imaging; type: physicochemical; settings: for influx into GUV containing a printed pore: GUV with printed hydrogel pore
Description: Representative confocal images of two adjacent GUVs (red, λex=488 nm) in the xy-(left) and an xz-plane (right, as indicated by white dashed line) are shown in FIG. 11c. […] The scalebar in the image of the xy-plane represents 20 μm.
Further representative confocal images of two adjacent GUVs, similar as described in FIG. 11c, are shown in FIG. 11d. […] The scalebar in the image of the xy-plane represents 20 μm.
Next, it was tested if the pores can transport larger and charged molecular cargo.
0.01 mg ml-1 Rhodamine B acrylate were added to the final solution for fluorescence microscopy.

[2] = Membrane permeability via fraction of successful printing attempts inside GUVs over time; settings: not told
Description: The membrane permeability was determined by adding the respective components after incubation of the GUVs with the remaining components of the photoresist and quantifying the fraction of successful printing attempts, Nprint/Ntot, inside the GUVs over time (n=30 for each condition and time point). An exponential fit (black line) was used to determine the point in time of 50% success rate.
The resist was polymerized inside the GUV by two-photon 3D laser printing. […] The printing success rate was used as an indirect way to determine the membrane permeability of the non-fluorescent components. For this purpose, PEGDA or LAP was added to GUVs that were pre-incubated with the other resist components. Subsequently, the fraction of successful printing attempts, Npol/Ntot, was quantified for 30 GUVs per time point over the course of up to 100 minutes.
We use the interdependence of the permeability and the concentration inside of a GUV Cin [1] to determine the membrane permeability P via printing attempts:
where R is the GUV radius, Cout the concentration outside of the GUV and t the time.

| Compound | influx into GUV containing a printed pore [1] | influx into GUV containing a printed pore ([1]; listed as single-stranded DNA) | influx into adjacent GUV without printed pore ([1]; GUV without pore) | Papp at 12 mg mL-1 [2] |
| --- | --- | --- | --- | --- |
| 5′-Atto 647N TTTTTTAATTTTT 3′ (DNA, 5' {Atto647N}, backbone not given here) [13 base-long single-stranded DNA, 13 base-long single-stranded DNA labelled with Atto647N] | can diffuse into the GUV across the printed pore | influx | does not show DNA import | – |
| Cc1cc(C)c(C(=O)P(=O)([O-])c2ccccc2)c(C)c1.[Li+] [LAP, Lithium phenyl-2,4,6-trimethylbenzoylphosphinate] | – | – | – | 0.0987 ± 0.0325 ×10⁻⁶ cm/s |
